# How the values were obtained:
# [1] = Storage stability (chemical and polymorphic); format: physicochemical
# Excerpt: A crystalline form according to Paragraph 2, which is characterized by an X-ray powder diffraction pattern having peaks at 5.8, 7.3, 12.9, 15.9, 16.5 and 18.6 degrees two theta±0.2 degrees two theta and also having any one, any two, any three or more additional peaks selected from: 4.3, 9.4, 10.0, 10.9 and 14.7 two theta±0.2 degrees two theta. • 4. A crystalline form according to Paragraph 2, which is characterized by the X-ray powder diffraction pattern having peaks at 7.3, 16.5, 9.4, 10.9 and 14.7 two theta±0.2 degrees two theta and also having any one, any two, any three or more additional peaks selected from: 4.3, 5.8, 10.0, 12.9, 15.9 and 18.6 two theta±0.2 degrees two theta and optionally further characterized by an FTIP spectrum as depicted in FIG. 6. • 5. A crystalline form according to Paragraph 1 or Paragraph 2, which is characterized by the X-ray powder diffraction pattern having peaks at 4.3, 5.8, 7.3, 9.4, 10.0, 10.9, 12.9, 14.7, 15.9, 16.5, and 18.6 two theta±0.2 degrees two theta±0.2 degrees two theta. • 6. A crystalline form according to Paragraph 5, which is further characterized by X-ray powder diffraction d-spacings at: 20.341, 15.261, 12.068, 9.397, 8.826, 8.092, 6.863, 6.024, 5.583, 5.353 and 4.773 Å±0.1 Å. • 7. A crystalline form according to any of Paragraphs 1, 2, 3 or 4, further characterized by an X-ray powder diffraction pattern having one, two, three, four five, or more than 5 additional peaks selected from: 4.3, 5.0, 5.5, 5.8, 7.3, 8.5, 8.9, 9.4, 10.0, 10.9, 11.6, 12.9, 13.7, 13.9, 14.7, 14.8, 15.1, 15.3, 15.9, 16.5, 17.3, 17.6, 18.6, 19.1, 19.5, 20.3, 21.2, 21.9 and 23.1 degrees two theta±0.2 degrees two theta. • 8. A crystalline form according to any of Paragraphs 1, 2, 3, 4, 5, 6 or 7, which is characterized by an X-ray powder diffraction pattern having peaks at: 4.3, 5.0, 5.5, 5.8, 7.3, 8.5, 8.9, 9.4, 10.0, 10.9, 11.6, 12.9, 13.7, 13.9, 14.7, 14.8, 15.1, 15.3, 15.9, 16.5, 17.3, 17.6, 18.6, 19.1, 19.5, 20.3, 21.2, 21.9 and 23.1 degrees two theta±0.2 degrees two theta. • 9. A crystalline form according to Paragraph 8, which is further characterized by the absence of any peak (defined as relative intensity I/Io of less than 1%) between any of two neighboring peaks. • 10. A crystalline form according to any of Paragraphs 1, 2, 3, 4, 5, 6, 7, 8 or 9, further characterized by an X-ray powder diffraction pattern as depicted in FIG. 1 or FIG. 14 and/or a solid state ^13C NMR as depicted in FIG. 5. • 11. A crystalline form according to any of Paragraphs 1, 2, 3, 4, 5, 6, 7, 8, 9 or 10, further characterized by a DSC as depicted in FIG. 2. • 12. A crystalline form according to any of Paragraphs 2-11 further characterized by a solid state ^13C NMR spectrum having peaks at 176.8, 161.9, 141.1, 139.5, 138.6, 137.2, 129.3, 128.7, 126.3, 124.9, 64.2, 60.6, 47.5, 46.1, 40.1, 39.0, 38.1, 34.3, 32.7, 29.8, 28.2, 22.4, 20.2, 17.8, 16.5, 13.7, 11.7 ppm±0.2 ppm. • 13. […] A crystalline form according to any of Paragraphs 1, 2, 3, 4, 5, 6, 7, 8, 9, 10, 11, 12, 13, 14 or 15, which is a hydrate, preferably wherein the crystalline form contains from 5.2 to 5.7 wt % water. • 17. A crystalline form according to any of Paragraphs 1, 2, 3, 4, 5, 6, 7, 8, 9, 10, 11, 12, 13, 14, 15 or 16, comprising agglomerates having spherical morphology, preferably wherein: at least 50%, at least 60%, at least 70%, at least 80% or at least 90% of the agglomerates have spherical morphology, preferably wherein the circularity of at least 50% (preferably: at least 60%, at least 70%, at least 80% or at least 90%) of the particles on a volume basis is: greater than or equal to about 0.85, about 0.86 to 1, about 0.88 to about 0.98, about 0.90 to about 0.96, about 0.92 to about 0.96. • 18. […] A process according to any of Paragraphs 18 or 19, wherein the solution in step (i) is prepared by heating, preferably to a temperature of about 80° C. to about 150° C., about 90° C. to about 130° C. • 21. […]
# [2] = characterized according to Carr RL, Chem Eng 1965
# Description: Whole amount material was put in graduated cylinder. A graduated cylinder with the sample was attached to Erweka SVM tapped density tester and tapped with 1250 strikes. Volume of the powder is measured. Bulk density is measured as ratio between mass of sample (ms) and unsettled apparent volume (V0) of sample in graduated cylinder. Tap Density is measured as ratio between mass of sample (ms) and final tapped volume of sample (Vf). Compressibility index and Hausner ratio were calculated according to obtained results of bulk and tapped density.
# [3] = Circularity (morphology) by image analysis, Morphologi G3; format: physicochemical; conditions: agglomerates, sieved through 300 μm, volume basis; e.g. as prepared according to Example 19
# Excerpt: As used herein, circularity refers to the ratio of the perimeter of a circle with the same area as the particle divided by the perimeter of the actual particle image. Circularity is preferably determined by measurement of the particles following sieving through a sieve having a pore size of 300 μm. The particles are preferably measured following analysis of photographs of the particles at an appropriate magnification (e.g. 2.5 to 5.0 times magnification). More particularly, the sample is analyzed using Morphologi G3 instrumentation. The collected data can be processed using image analysis. Circularity is a ratio of the perimeter of a circle with the same area as the particle divided by the perimeter of the actual particle image.
# Sample was sieved through a sieve with pore size 300 μm. The sieved material was dispersed on the glass surface at 0.5 bar and then images were taken at 2.5-5.0× magnification using Morphologi G3 (Malvern). Collected data was processed using image analysis. Circularity is a ratio of the perimeter of a circle with the same area as the particle divided by the perimeter of the actual particle image.
substance,measurement,setting,value
trisodium valsartan:sacubitril [Form II],chemical and polymorphic stability,"[1]; protected from moisture, stored at 25° C./60% RH",chemically and polymorphically stable
same,chemical and polymorphic stability,"[1]; protected from moisture, stored at 40° C./75% RH",chemically and polymorphically stable
same,chemical and polymorphic stability,"[1]; protected from moisture, stored at 50° C.",chemically and polymorphically stable
same,chemical and polymorphic stability,"[1]; protected from moisture, stored at 50° C./80% RH",chemically and polymorphically stable
same,chemical and polymorphic stability,[1]; stored for 8 weeks at 25° C./60% RH,chemically and polymorphically stable
same,chemical and polymorphic stability,[1]; stored for 8 weeks at 50° C.,chemically and polymorphically stable
same,flow properties,[2],good-excellent
same,circularity (v0.5),[3],greater than 0.85

# Reference: patent US10689352B2, “Solid state forms of trisodium valsartan: sacubitril” (Teva Pharmaceuticals International GMBH, priority 2015, dated 2020)
